Columns and labels:
[1] = tested on: human umbilical vein endothelial cells (HUVEC); experiment: HUVEC+VEGF proliferation assay; type: cell-based; conditions: VEGF 6 ng/mL, 72 h, MTT
Method: HUVEC+VEGF Proliferation Assay
This assay determines the ability of a test compound to inhibit the growth factor-stimulated proliferation of human umbilical vein endothelial cells (“HUVEC”). HUVEC cells (passage 3–4; Clonetics, Corp.) were thawed into EGM2 culture medium (Clonetics Corp) in T75 flasks. Fresh EGM2 medium was added to the flasks 24 hours later. Four or five days later, cells were exposed to another culture medium (F12K medium supplemented with 10% fetal bovine serum (FBS), 60 μg/mL endothelial cell growth supplement (ECGS), and 0.1 mg/mL heparin). Exponentially-growing HUVEC cells were used in experiments thereafter. Ten to twelve thousand HUVEC cells were plated in 96-well dishes in 100 μl of rich, culture medium (described above). The cells were allowed to attach for 24 hours in this medium. The medium was then removed by aspiration and 105 μl of starvation media (F12K+1% FBS) was added to each well. After 24 hours, 15 μl of test agent dissolved in 1% DMSO in starvation medium or this vehicle alone was added into each treatment well; the final DMSO concentration was 0.1%. One hour later, 30 μl of VEGF (30 ng/mL) in starvation media was added to all wells except those containing untreated controls; the final VEGF concentration was 6 ng/mL. Cellular proliferation was quantified 72 hours later by MTT dye reduction, at which time cells were exposed for 4 hours MTT (Promega Corp.). Dye reduction was stopped by addition of a stop solution (Promega Corp.) and absorbance at 595 nm was determined on a 96-well spectrophotometer plate reader.

[2] = biological target: T1, unphosphorylated VEGF-R2Δ50 (FLVK) (Homo sapiens, UniProt P35968, DEL940-989/E990V); experiment: VEGF-R2 coupled spectrophotometric assay, unphosphorylated VEGF-R2Δ50 (FLVK); type: biochemical; conditions: unphosphorylated VEGF-R2Δ50; for inhibition at 0.05 µM: read-out: FLVK (% inh @ 50 nM)
T1 construct: VEGF-R2Δ50 contains residues 806–939 and 990–1171; made in house; host or cells: baculovirus/insect cell system
T1 sequence (P35968 with tags, fused parts or gaps DEL940-989/E990V limits assumed): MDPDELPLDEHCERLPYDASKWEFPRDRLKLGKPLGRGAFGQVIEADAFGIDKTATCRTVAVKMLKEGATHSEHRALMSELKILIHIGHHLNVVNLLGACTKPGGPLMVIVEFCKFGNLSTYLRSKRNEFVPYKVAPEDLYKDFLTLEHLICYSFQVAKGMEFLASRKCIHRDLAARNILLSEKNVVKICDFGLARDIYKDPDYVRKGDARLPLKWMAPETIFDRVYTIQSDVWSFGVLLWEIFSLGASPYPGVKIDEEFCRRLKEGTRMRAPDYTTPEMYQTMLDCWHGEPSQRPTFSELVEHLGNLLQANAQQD
Outline: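 Baculovirus-expressed human VEGF-R2Δ50 (kinase insert partly deleted, E990V), unphosphorylated form; ADP production coupled via PK/LDH to NADH oxidation, read at 340 nm. 20 mM poly(E4Y1), 3 mM ATP, 60 mM MgCl2, 2 mM MnCl2, 200 mM HEPES pH 7.5; 5–40 nM enzyme. Ki from Morrison tight-binding fit.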

[3] = biological target: T2, PDGFRβ (Homo sapiens, UniProt P09619); experiment: PAE-PDGFRβ phosphorylation in PAE-PDGFRB cells assay; type: cell-based; conditions: PAE cells overexpressing human PDGFRβ, PDGF-BB stimulated; read-out: PAE PDGFR autophos IC50 (nM) AVG
T2 construct: expressed in transfected cells; host or cells: porcine aorta endothelial (PAE)-PDGFRβ cells
T2 sequence (P09619 33-1106): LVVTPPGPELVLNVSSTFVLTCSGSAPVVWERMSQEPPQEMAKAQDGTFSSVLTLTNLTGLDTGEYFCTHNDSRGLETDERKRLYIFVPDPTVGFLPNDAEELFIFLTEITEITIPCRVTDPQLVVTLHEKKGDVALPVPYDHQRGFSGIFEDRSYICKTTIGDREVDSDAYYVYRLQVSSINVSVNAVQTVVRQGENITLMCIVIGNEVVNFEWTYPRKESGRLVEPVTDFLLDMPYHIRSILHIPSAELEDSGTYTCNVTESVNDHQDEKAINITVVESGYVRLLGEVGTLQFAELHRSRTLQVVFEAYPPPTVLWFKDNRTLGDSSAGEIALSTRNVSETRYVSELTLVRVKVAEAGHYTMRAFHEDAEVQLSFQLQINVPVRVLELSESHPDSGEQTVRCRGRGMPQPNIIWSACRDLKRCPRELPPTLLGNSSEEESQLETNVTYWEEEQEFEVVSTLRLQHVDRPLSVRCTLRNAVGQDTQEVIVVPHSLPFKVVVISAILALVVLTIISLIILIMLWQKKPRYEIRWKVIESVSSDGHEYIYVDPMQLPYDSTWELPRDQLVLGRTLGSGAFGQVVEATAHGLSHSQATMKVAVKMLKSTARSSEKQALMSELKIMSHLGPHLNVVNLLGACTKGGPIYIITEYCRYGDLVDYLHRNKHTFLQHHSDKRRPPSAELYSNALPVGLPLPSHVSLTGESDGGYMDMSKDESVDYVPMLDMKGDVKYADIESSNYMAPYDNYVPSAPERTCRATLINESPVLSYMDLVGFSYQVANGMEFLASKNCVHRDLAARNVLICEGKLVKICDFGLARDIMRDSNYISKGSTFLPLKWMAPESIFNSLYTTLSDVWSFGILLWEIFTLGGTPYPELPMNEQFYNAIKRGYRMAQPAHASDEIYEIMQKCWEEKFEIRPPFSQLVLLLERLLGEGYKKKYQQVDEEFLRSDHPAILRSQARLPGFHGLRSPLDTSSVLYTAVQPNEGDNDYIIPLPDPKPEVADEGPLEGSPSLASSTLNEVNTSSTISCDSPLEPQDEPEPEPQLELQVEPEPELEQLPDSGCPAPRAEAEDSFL
Outline: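 PAE cells overexpressing human PDGFRβ, serum-starved 16 h (0.1% FBS), were given compound for 1 h at 37 °C (0.5% DMSO) and then stimulated with 1 μg/mL PDGF-BB plus 2 mM Na3VO4 for 8 min. Receptor autophosphorylation was read by capture ELISA (HRP-PY20, TMB, 450 nm); IC50 from 4-parameter fit.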

[4] = tested on: Huvec; experiment: bFGF Huvec proliferation; type: cell-based, human

Compound | inhibition at 0.05 µM ([2]; 50 nM compound) [%] | Ki [2] [nM] | IC50 [3] [nM] | IC50 ([1]; Homo sapiens, HUVEC) [nM] | IC50 ([4]; Homo sapiens, HUVEC) [nM] | IC50 [1] [nM] | FLVK (% inh @ 50 nM) ([2]; 50 nM compound) [%] | IC50 ([4]; bFGF) [nM]
CNC(=O)c1c(Cl)n(C)c2cc(Oc3ccnc4cc(-c5nc(C(C)(C)O)cs5)sc34)ccc12 [Example 75, 2-Chloro-6-{2-[4-(1-hydroxy-1-methyl-ethyl)thiazol-2-yl]-thieno[3,2-b]pyridin-7-yloxy}-1-methyl-1H-indole-3-carboxyllc acid methylamide] | 84 | 2.62 | 16.6 | 1.4 | 10000 | – | – | –
Cc1c(C(=O)NCCCO)c2ccc(Oc3ccnc4cc(C(=O)N5CCC5)sc34)cc2n1C [Example 63, 6-[2-(Azetidine-1-carbonyl)-thieno[3,2-b]pyridin-7-yloxy}-1,2-dimethyl-1H-indole-3-carboxylic acid (3-hydroxy-propyl)-amide] | 67 | 9.33 | 84 | 10 | 10000 | – | – | –
CNC(=O)c1c(C)oc2cc(Oc3ccnc4cc(C(=O)N5CCC[C@H]5COC)sc34)ccc12 [Example 79, 6-(2-[(S)-2-(methoxymethyl)pyrrolidine-1-carbonyl]thieno[3,2-b]pyridin-7-yloxy)-2-methyl-benzofuran-3-carboxylic acid methyl amide] | 90 | 0.276 | 15.5 | 0.223 | 130 | – | – | –
CNC(=O)c1c(C)n(C)c2cc(Oc3ccnc4cc(C(=O)N5CCC5)sc34)ccc12 [Example 25] | 70 | 4.08 | 12 | 0.45 | 7460 | – | – | –
Cc1c(C(=O)NCCCO)c2ccc(Oc3ccnc4cc(C(=O)N5CCCC5)sc34)cc2n1C [Example 65, 1,2-Dimethyl-6-[2-(pyrrolidine-1-carbonyl)-thieno[3,2-b]pyridin-7-yloxy]-1H-indole-3-carboxylic acid (3-hydroxy-propyl)-amide] | 65 | 7.97 | 59 | 10 | 10000 | – | – | –
Methoxy-azetidine-1-carbonyl)-thieno[3,2-b]pyridin-7-yloxy]-2-methyl-benzofuran-3-carboxylic acid methylamide [Example 78] | – | 0.221 | 14.8 | – | – | 0.507 | 93 | 30
Cc1c(C(=O)NC2CC2)c2ccc(Oc3ccnc4cc(C(=O)N5CC[C@@H](O)C5)sc34)cc2n1C [Example 53, 6-[2-((R)-3-Hydroxy-pyrrolidine-1-carbonyl)-thieno[3,2-b]pyridin-7-yloxy]-1,2-dimethyl-1H-indole-3-carboxylic acid cyclopropylamide] | 93 | 1.07 | 229 | 1.8 | 7230 | – | – | –
Cc1c(C(=O)NCC2CC2)c2ccc(Oc3ccnc4cc(C(=O)N5CC[C@@H](O)C5)sc34)cc2n1C [Example 56] | 60 | 3.8 | 109 | 22 | 10000 | – | – | –
CNC(=O)c1c(C)n(C)c2cc(Oc3ccnc4cc(-c5nccs5)sc34)ccc12 [Example 41, 1,2-Dimethyl-6-(2-thiazol-2-yl-thieno[3,2-b]pyridin-7-yloxy)-1H-indole-3-carboxylic acid methylamide] | 71 | 3.3 | 22.1 | 3.7 | 1220 | – | – | –

Further lines, with some results ahead:

inhibition at 0.05 µM ([2]; 50 nM compound) [%] | Ki [2] [nM] | IC50 [3] [nM] | Compound | IC50 ([1]; Homo sapiens, HUVEC) [nM] | IC50 ([4]; Homo sapiens, HUVEC) [nM] | IC50 [1] [nM] | FLVK (% inh @ 50 nM) ([2]; 50 nM compound) [%] | IC50 ([4]; bFGF) [nM]
94 | 1.44 | 177 | CCc1sc2cc(Oc3ccnc4cc(-c5nccn5C)sc34)ccc2c1C(=O)NC [Example 134, 2-Ethyl 6-{[2-(1-methyl-1H-imidazol-2-yl)thieno[3,2-b]pyridin-7-yl]oxy}benzo[b]thiophene-3-carboxylic acid methylamide] | 0.656 | 1070 | – | – | –
81 | 1.45 | 112 | CCc1oc2cc(Oc3ccnc4cc(-c5nccn5C)sc34)ccc2c1C(=O)NC [Example 94, 2-Ethyl-6[2-(1-methyl-1H-imidazol-2-yl)-thieno[3,2-b]pyridin-7-yloxy]-benzofuran-3-carboxylic acid methylamide] | 0.7 | 251 | – | – | –
96 | 0.91 | 49 | Cc1oc2cc(Oc3ccnc4ccsc34)ccc2c1C(=O)Nc1ccc(N2CCOCC2)nc1 [Example 102, 2-Methyl-6-(thieno[3,2-b]pyridin-7-yloxy)benzofuran-3-carboxylic acid (6-morpholin-4-yl-pyridin-3-yl)amide] | 0.186 | 1720 | – | – | –
98 | 0.2 | 28.8 | Cc1oc2cc(Oc3ccnc4cc(-c5nccn5C)sc34)ccc2c1C(=O)NC(C)C [Example 83, 2-Methyl-6-[2-(1-methyl-1H-imidazol-2-yl)-thieno[3,2-b]pyridin-7-yloxy]-benzofuran-3-carboxylic acid isopropyl amide] | 0.77 | 142 | – | – | –
95 | 0.219 | 179 | CO[C@@H]1CCN(C(=O)c2cc3nccc(Oc4ccc5c(C(=O)NCC6CC6)c(C)sc5c4)c3s2)C1 [Example 125, 6-[(2-{[(3R)-3-Methoxypyrrolidin-1-yl]carbonyl}thieno[3,2-b]pyridin-7-yl)oxy]-2-methylbenzo[b]thiophene-3-carboxylic acid (cyclopropylmethyl)amide] | 2 | 969 | – | – | –
96 | 0.615 | 17.8 | CO[C@@H]1CCN(C(=O)c2cc3nccc(Oc4ccc5c(C(=O)NCC(C)C)c(C)oc5c4)c3s2)C1 [Example 87, 6-[2-(3-Methoxy-pyrrolidine-1-carbonyl)-thieno[3,2-b]pyridin-7-yloxy]-2-methyl-benzofuran-3-carboxylic acid isobutyl amide] | 1.25 | 6040 | – | – | –
87 | 0.2 | 189 | Cc1sc2cc(Oc3ccnc4cc(-c5nccn5C)sc34)ccc2c1C(=O)NC1CC1 [Example 117, 2-Methyl-6-{[2-(1-methyl-1H-imidazol-2-yl)thieno[3,2-b]pyridin-7-yl]oxy}benzo[b]thiophene-3-carboxylic acid cyclopropylamide] | 0.07 | 86 | – | – | –
100 | – | 164 | Cc1oc2cc(Oc3ccnc4ccsc34)ccc2c1C(=O)NCCc1c[nH]c2cc(F)ccc12 [Example 104, 2-Methyl-6-(thieno[3,2-b]pyridin-7-yloxy)-benzofuran-3-carboxylic acid [2-(6-fluoro-1H-indol-3-yl)ethyl]-amide] | 8.4 | 227 | – | – | –
94 | 0.356 | 16.5 | CO[C@@H]1CCN(C(=O)c2cc3nccc(Oc4ccc5c(C(=O)NCC6CC6)c(C)oc5c4)c3s2)C1 [Example 91, 6-[2-(q-Methoxy-pyrrolidine-1-carbonyl)-thieno[3,2-b]pyridin-7-yloxy]-2-methyl-benzofuran-3-carboxylic acid cyclopropylmethyl-amide] | 0.168 | 250 | – | – | –
91 | 0.57 | 148 | CNC(=O)c1c(C)sc2cc(Oc3ccnc4cc(-c5nc(CO)cs5)sc34)ccc12 [Example 128] | 0.13 | 100 | – | – | –
89 | 0.884 | 53.1 | COC[C@@H]1CCCN1C(=O)c1cc2nccc(Oc3ccc4c(C(=O)NC(C)C)c(C)oc4c3)c2s1 [Example 82, 6-(2-[(S)-2-(methoxymethyl)pyrrolidine-1-carbonyl]thieno[3,2-b]pyridin-7-yloxy)-2-methyl-benzofuran-3-carboxylic acid isopropylamide] | 2.28 | 2060 | – | – | –

From patent US7045528B2, “Benzofused heterozryl amide derivatives of thienopyridines useful as therapeutic agents, pharmaceutical compositions including the same, and methods for their use” (Agouron Pharmaceuticals, Inc., priority 2002, dated 2006)
